Data on 1 compound can be found in publication PMC8112869, “Therapeutic inhibition of keratinocyte TRPV3 sensory channel by local anesthetic dyclonine” (eLife, 2021).

SMILES strings stand for the structures.

For this experiment, the target named is T1, TRPV3 (Mus musculus, UniProt Q8K424).
T1 construct: expressed in transfected cells; host or cells: HEK 293T
T1 sequence (Q8K424 1-791): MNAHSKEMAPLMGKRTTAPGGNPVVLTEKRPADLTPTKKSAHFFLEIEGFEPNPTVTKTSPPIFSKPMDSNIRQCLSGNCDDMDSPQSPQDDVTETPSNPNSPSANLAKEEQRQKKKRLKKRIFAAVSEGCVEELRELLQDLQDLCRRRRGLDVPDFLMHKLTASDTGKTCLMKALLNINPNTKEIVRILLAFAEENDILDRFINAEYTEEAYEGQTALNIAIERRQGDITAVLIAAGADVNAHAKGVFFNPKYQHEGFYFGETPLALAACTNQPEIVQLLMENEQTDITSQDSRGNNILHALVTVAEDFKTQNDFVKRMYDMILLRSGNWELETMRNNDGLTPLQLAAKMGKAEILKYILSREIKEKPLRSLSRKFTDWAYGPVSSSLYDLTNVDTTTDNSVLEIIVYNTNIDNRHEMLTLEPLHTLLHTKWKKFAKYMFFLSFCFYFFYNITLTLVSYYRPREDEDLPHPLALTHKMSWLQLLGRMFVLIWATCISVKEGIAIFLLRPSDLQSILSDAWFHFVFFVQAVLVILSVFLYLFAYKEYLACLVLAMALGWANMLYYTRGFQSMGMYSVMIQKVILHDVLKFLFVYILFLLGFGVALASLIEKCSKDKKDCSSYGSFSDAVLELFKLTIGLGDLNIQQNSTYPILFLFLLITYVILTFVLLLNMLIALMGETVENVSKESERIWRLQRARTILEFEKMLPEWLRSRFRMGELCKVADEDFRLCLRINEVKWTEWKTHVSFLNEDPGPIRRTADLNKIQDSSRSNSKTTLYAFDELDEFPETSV
As to the kind of experiment: Heat-activated TRPV3 currents (infrared laser temperature jump) in HEK 293T cells. The class given is cell-based. The source says: Conventional whole-cell and excised patch-clamp recording methods were used. For the recombinant expressing system, green fluorescent EGFP was used as a surface marker for gene expression. Recording pipettes were pulled from borosilicate glass capillaries (World Precision Instruments) and fire-polished to a resistance between 2 and 4 MΩ when filled with internal solution containing (in mM) 140 CsCl, 2.0 MgCl2, 5 EGTA, and 10 HEPES, pH 7.4 (adjusted with CsOH). Bath solution contained (in mM): 140 NaCl, 5 KCl, 3 EGTA, and 10 HEPES, pH 7.4 adjusted with NaOH. […] For a subset of recordings, currents were amplified using an Axopatch 200B amplifier (Molecular Devices, Sunnyvale, CA) and recorded through a BNC-2090/MIO acquisition system (National Instruments, Austin, TX) using QStudio developed by Dr. Feng Qin at State University of New York at Buffalo. […] As determined by the conductance tests, the solution around a patch under study was fully controlled by the application of a flow rate of 100 μl/min or greater. […]
Constant temperature steps were generated by irradiating the tip of an open pipette and using the current of the electrode as the readout for feedback control. […]

Consider `CCCCOc1ccc(C(=O)CCN2CCCCC2)cc1` [dyclonine], for which the “Hill coefficient nH” value was determined as 1.9 ± 0.54.
